# pIC50: −log10 of the molar value.
# Test system: HIF-2α HIS TAG-PASB Domain
# Assay: HIF-2α Scintillation Proximity Assay (SPA)
# Type: binding
# Protocol: The percent inhibition was determined and IC50 values were calculated using the Dotmatics system based on the following equation: % inhibition=[(high control−sample)/(high control−low control)]×100.
row,Structure (SMILES),pIC50
1,"N#Cc1c(Oc2cc(F)cc(Cl)c2)ccc(S(=O)(=O)C(F)(F)F)c1NCCO [Compound 154, 6-(3-Chloro-5-fluoro-phenoxy)-2-(2-hydroxyethylamino)-3-(trifluoromethylsulfonyl)benzonitrile]",4.93
2,"O=S(=O)(c1ccc(Oc2cc(F)cc(F)c2)c2c1C(CO)CC2)C(F)F (stereo not drawn) [Compound 24, (7-((Difluoromethyl)sulfonyl)-4-(3,5-difluorophenoxy)-2,3-dihydro-1H-inden-1-yl)methanol]",6.04
3,"N#Cc1cc(F)cc(Oc2ccc(S(=O)(=O)CCO)c3c2CC(F)(F)C3O)c1 (stereo not drawn) [Compound 250, 3-((2,2-Difluoro-1-hydroxy-7-((2-hydroxyethyl)sulfonyl)-2,3-dihydro-1H-inden-4-yl)oxy)-5-fluorobenzonitrile]",5.89
4,"Cc1c(Oc2cc(F)cc(C#N)c2)ccc(S(=O)(=O)C(F)(F)F)c1Cl [Compound 144, 3-Fluoro-5-[3-chloro-2-methyl-4-(trifluoromethylsulfonyl)phenoxy]benzonitrile]",7.36
5,"CS(=O)(=O)c1ccc(Oc2cc(F)cc(C#N)c2)c2c1[C@H](O)C(F)(F)[C@@H]2F [Example 292, 3-fluoro-5-[(1S,3R)-2,2,3-trifluoro-1-hydroxy-7-methylsulfonyl-indan-4-yl]oxy-benzonitrile]",> 8.30
6,"N#Cc1cc(F)cc(Oc2ccc(S(N)(=O)=O)c3c2[C@@H](O)C(F)(F)[C@H]3O)c1 [Compound 337, (1R,3S)-7-(3-cyano-5-fluoro-phenoxy)-2,2-difluoro-1,3-dihydroxy-indane-4-sulfonamide]",5.44
7,CS(=O)(=NC#N)c1ccc(Oc2cc(F)cc(C#N)c2)c2c1C(O)CC2 (stereo not drawn) [Compound 68],5.51
8,"Cc1c(S(=O)(=O)C(F)F)ccc(Oc2cc(F)cc(F)c2)c1C#N [Compound 34, 3-((Difluoromethyl)sulfonyl)-6-(3,5-difluorophenoxy)-2-methylbenzonitrile]",> 8.30
9,"CS(=O)(=O)N=S(=O)(CF)c1ccc(Oc2cc(F)cc(C#N)c2)c2c1[C@H](O)C(F)(F)C2 (stereo partly drawn) [Compound 284, N—(((S)-7-(3-cyano-5-fluorophenoxy)-2,2-difluoro-3-hydroxy-2,3-dihydro-1H-inden-4-yl)(fluoromethyl)(oxo)-λ^6-sulfanylidene)methanesulfonamide]",5.25
10,"Cc1c(Cl)cccc1Oc1ccc(S(=O)(=O)C(F)(F)F)cc1Br [Compound 171, 1-(2-Bromo-4-((trifluoromethyl)sulfonyl)phenoxy)-3-chloro-2-methylbenzene]",5.92
11,"O=S(=O)(c1ccc(Oc2cncc(F)c2)c2c1[C@H](O)CC2)C(F)F [Compound 5, (R)-7-((difluoromethyl)sulfonyl)-4-((5-fluoropyridin-3-yl)oxy)-2,3-dihydro-1H-inden-1-ol]",6.05
12,"C=CS(=O)(=O)c1ccc(Oc2cc(F)cc(Cl)c2)c(Br)c1 [Compound 130, 2-Bromo-1-(3-chloro-5-fluorophenoxy)-4-(vinylsulfonyl)benzene]",5.26
13,"O=S(=O)(c1ccc(Oc2ccc(F)c(Cl)c2)c2c1C(O)CC2)C(F)(F)F (stereo not drawn) [Compound 218, 4-(3-Chloro-4-fluorophenoxy)-7-((trifluoromethyl)sulfonyl)-2,3-dihydro-1H-inden-1-ol]",6.09
14,"CS(=O)(=O)c1ccc(Oc2cc(F)cc(C#N)c2)c(C(F)F)c1C#N [Compound 94, 3-(3-Cyano-5-fluorophenoxy)-2-(difluoromethyl)-6-(methylsulfonyl)benzonitrile]",6.89
15,"N#Cc1cc(S(=N)(=O)C(F)(F)F)ccc1Oc1cc(F)cc(Cl)c1 (stereo not drawn) [Compound 72, 2-(3-chloro-5-fluorophenoxy)-5-((trifluoromethyl)sulfonimidoyl)benzonitrile]",6.29
16,"NC(=O)c1cc(S(=O)(=O)C(F)(F)F)ccc1Oc1cc(F)cc(Cl)c1 [Compound 125, 2-(3-Chloro-5-fluorophenoxy)-5-((trifluoromethyl)sulfonyl)benzamide]",5.10
17,"Cc1c(Oc2cc(F)cc(Cl)c2)ccc(S(=O)(=O)C(F)(F)F)c1Cl [Compound 143, 3-Chloro-1-(3-chloro-5-fluoro-phenoxy)-2-methyl-4-(trifluoromethylsulfonyl)benzene]",7.70
18,"CS(=O)(=O)c1ccc(Oc2ccc(F)c(C#N)c2)c2c1[C@H](O)C(F)(F)[C@@H]2F [Compound 327, 2-Fluoro-5-(((1S,3R)-2,2,3-trifluoro-1-hydroxy-7-(methylsulfonyl)-2,3-dihydro-1H-inden-4-yl)oxy)benzonitrile]",7.55
19,"CS(=O)(=O)c1ccc(Oc2cc(F)cc(Cl)c2)c2c1C(O)CC2 (stereo not drawn) [Compound 90, 4-(3-Chloro-5-fluorophenoxy)-7-(methylsulfonyl)-2,3-dihydro-1H-inden-1-ol]",6.64
20,"N#Cc1cc(Oc2ccc(S(=O)(=O)C(F)(F)F)c3c2CC(F)(F)[C@H]3O)c[n+]([O-])c1 [Example 267, (S)-3-cyano-5-((2,2-difluoro-1-hydroxy-7-((trifluoromethyl)sulfonyl)-2,3-dihydro-1H-inden-4-yl)oxy)pyridine 1-oxide]",7.04

row,Structure (SMILES),pIC50
1,"C[C@]1(F)Cc2c(Oc3cc(F)cc(C#N)c3)ccc(S(C)(=O)=O)c2[C@@H]1O [Compound 298, 3-fluoro-5-(((1S,2S)-2-fluoro-1-hydroxy-2-methyl-7-(methylsulfonyl)-2,3-dihydro-1H-inden-4-yl)oxy)benzonitrile]",4.79
2,"N#Cc1c(S(=O)(=O)C(F)(F)F)ccc(Oc2cc(F)cc(Cl)c2)c1Cl [Compound 111, 2-Chloro-3-(3-chloro-5-fluorophenoxy)-6-((trifluoromethyl)sulfonyl)benzonitrile]",7.82
3,"N#Cc1cc(F)cc(Oc2ccc(S(=N)(=O)C(F)(F)F)c3c2CCC3O)c1 (stereo not drawn) [Compound 258, 3-Fluoro-5-((1-hydroxy-7-(S-(trifluoromethyl)sulfonimidoyl)-2,3-dihydro-1H-inden-4-yl)oxy)benzonitrile]",6.39
4,"O=S(=O)(c1ccc(Oc2cc(F)cc(Cl)c2)c(Br)c1CNCc1ccccc1)C(F)(F)F [Compound 110, N-Benzyl-1-(2-bromo-3-(3-chloro-5-fluorophenoxy)-6-((trifluoromethyl)sulfonyl)phenyl)methanamine]",5.80
5,"CS(=O)(=O)c1ccc(Oc2cncc(F)c2)c2c1[C@H](O)C(F)(F)[C@H]2F [Compound 330, (1S,3S)-2,2,3-trifluoro-4-((5-fluoropyridin-3-yl)oxy)-7-(methylsulfonyl)-2,3-dihydro-1H-inden-1-ol]",5.68
6,"N#Cc1cncc(Oc2ccc(C(F)(F)F)c3c2CC(F)(F)[C@H]3O)c1 [Example 303, 5-[(1S)-2,2-difluoro-1-hydroxy-7-(trifluoromethyl)indan-4-yl]oxypyridine-3-carbonitrile]",7.43
7,"O=S(=O)(c1ccc(Oc2cncc(Cl)c2)c2c1[C@H](O)C(F)(F)C2)C(F)(F)F [Example 186, (S)-4-((5-Chloropyridin-3-yl)oxy)-2,2-difluoro-7-((trifluoromethyl)sulfonyl)-2,3-dihydro-1H-inden-1-ol]",> 8.30
8,"CS(=O)(=O)c1ccc(Oc2cc(F)cc(C#N)c2)c2c1[C@H](O)C(F)(Cl)C2 (stereo partly drawn) [Example 270, 3-(((1S)-2-chloro-2-fluoro-1-hydroxy-7-(methylsulfonyl)-2,3-dihydro-1H-inden-4-yl)oxy)-5-fluorobenzonitrile]",7.01
9,"N#Cc1cccc(Oc2ccc(S(=O)(=O)C(F)F)c(CO)c2Br)c1 [Compound 81, 3-(2-Bromo-4-((difluoromethyl)sulfonyl)-3-(hydroxymethyl)phenoxy)benzonitrile]",6.54
10,"N#Cc1cncc(Oc2ccc(S(=O)(=O)C(F)F)c3c2CC(F)(F)[C@H]3O)c1 [Example 27, (S)-5-((7-((Difluoromethyl)sulfonyl)-2,2-difluoro-1-hydroxy-2,3-dihydro-1H-inden-4-yl)oxy)nicotinonitrile]",6.60
11,"CS(=O)(=O)c1ccc(Oc2cncc(Br)c2)c2c1[C@H](O)[C@H](F)[C@@H]2F [Compound 328, (1S,2S,3R)-4-((5-Bromopyridin-3-yl)oxy)-2,3-difluoro-7-(methylsulfonyl)-2,3-dihydro-1H-inden-1-ol]",7.49
12,"O=S(=O)(c1ccc(Oc2cc(F)cc(Cl)c2)c2c1C(O)C(F)(F)C2)C(F)F (stereo not drawn) [Compound 8, 4-(3-chloro-5-fluoro-phenoxy)-7-(difluoromethylsulfonyl)-2,2-difluoro-indan-1-ol]",> 8.30
13,"N#Cc1cc(F)cc(Oc2ccc(S(=O)(=O)C(F)(F)F)c3c2CC(F)(F)[C@H]3NCCO)c1 [Compound 291, 3-[(1S)-2,2-difluoro-1-(2-hydroxyethylamino)-7-(trifluoromethylsulfonyl)indan-4-yl]oxy-5-fluoro-benzonitrile]",5.31
14,"N#Cc1cc(Oc2ccc(S(=O)(=O)C(F)(F)F)c3c2CCC3O)ccc1F (stereo not drawn) [Compound 216, 2-Fluoro-5-((1-hydroxy-7-((trifluoromethyl)sulfonyl)-2,3-dihydro-1H-inden-4-yl)oxy)benzonitrile]",5.57
15,"Cc1c(Oc2cc(F)cc(C#N)c2)ccc(S(=O)(=O)C(F)(F)F)c1Br [Compound 141, 3-[3-Bromo-2-methyl-4-(trifluoromethylsulfonyl)phenoxy]-5-fluoro-benzonitrile]",7.19
16,"O=S(=O)(c1ccc(Oc2cc(F)cc(F)c2)c2c1[C@H](O)CC2)C(F)F [Compound 2, (R)-7-((Difluoromethyl)sulfonyl)-4-(3,5-difluorophenoxy)-2,3-dihydro-1H-inden-1-ol]",> 8.30
17,"O=S(=O)(c1ccc(Oc2c(F)ccc3[nH]ncc23)c2c1[C@H](O)C(F)(F)C2)C(F)(F)F [Compound 264, (S)-2,2-Difluoro-4-((5-fluoro-1H-indazol-4-yl)oxy)-7-((trifluoromethyl)sulfonyl)-2,3-dihydro-1H-inden-1-ol]",6.42
18,"CNS(=O)(=O)c1ccc(Oc2cc(F)cc(F)c2)c2c1C(O)CC2 (stereo not drawn) [Compound 211, 7-(3,5-Difluorophenoxy)-3-hydroxy-N-methyl-2,3-dihydro-1H-indene-4-sulfonamide]",5.68
19,"Cc1c(Oc2cc(F)cc(C#N)c2)ccc(S(=O)(=O)C(F)(F)F)c1/C=C/c1nnco1 [Compound 150, 3-Fluoro-5-[2-methyl-3-[(E)-2-(1,3,4-oxadiazol-2-yl)vinyl]-4-(trifluoromethylsulfonyl)phenoxy]benzonitrile]",5.89

# Source: US9896418B2, “Aryl ethers and uses thereof” (Peloton Therapeutics, Inc., priority 2013, dated 2018)
